Data: US20060052600A1, “Amino-functional chalcones” (priority 2002, published 2006)
In brackets after ≈: the same amount, converted by molar mass. Where two headings read alike, the source gives them in different places.

Experiments:
[1] = test system: Plasmodium falciparum 3D7; assay: Plasmodium falciparum assay; assay type: cell-based; details: Table 2, read-out: IC50, activity against Plasmodium falciparum 3D7
[2] = test system: DHODH (dihydroorotate dehydrogenase); assay: DHODH assay; assay type: biochemical; details: test concentration not given
L. major promastigotes = assay: Leishmania promastigote assay; details: read-out: IC50, effect on L. major
[3] = test system: panel of non-fastidious bacteria (Gram-positive pathogens and Eschericia coli); assay: Activity against non-fastidious bacteria (panel, results in words)
[4] = Determination of solubility; assay type: physicochemical
Protocol: Solubility of the compounds was determined by preparing a saturated solution of compound in 0.3 M phosphate buffer (pH 7.4±0.3) in a brown glass tube. The suspensions were rotated slowly for 24 hours. Aliquots were centrifuged for 10 minutes at 14.000 rpm and supernatants were diluted in 40% (v/v) acetonitrile in water prior to HPLC analysis. Concentrations of analytes were quantified against a standard curve and used as term of solubility.
The HPLC-UV method used for the assessment of solubility is the same as used in the in vitro metabolism assay.

[5] = test system: Staphylococcus aureus ATCC33591 (resistant to methicillin); assay: MIC determination in broth microdilution assay
[6] = Determination of metabolic stability (liver microsomes); assay type: in vitro ADME, rat; details: for Metabolic turn-over (rat) in vitro: 20 μM, 15 min, 37° C.
Protocol: Samples were incubated for 15 min at 37° C. and the reactions were terminated by addition of equal volumes of acetonitrile. Blank incubations were performed at the same concentration but without addition of microsomes. Both blank and microsome-containing samples were made in […] of three. […] The fraction of compound metabolised during the 15 min of incubation was determined by comparison of blank and microsome-containing samples using a Waters Alliance 2690 separation module and Waters 996 PDA-detector (Waters. […] This was followed by a 5 minutes linear gradient to initial conditions, which were maintained for 5 min. The flow rate was 0.20 ml/min and injection volume 10 μl.

[7] = test system: Enterococcus faecalis ATCC29212; assay: MIC determination in broth microdilution assay
[8] = test system: Streptococcus pneumoniae #998 (clinical isolate); assay: MIC determination in broth microdilution assay
S. aureus ATCC29213 = assay: Killing curve determination (time-kill curve); assay type: cell-based, Staphylococcus aureus; details: for bactericidal or bacteriostatic action (time-kill curve): CFU per ml at concentrations above the MIC; for MIC: S. aureus ATCC29213
[9] = test system: Staphylococcus intermedius #2357 (clinical isolate); assay: MIC determination in broth microdilution assay
Eschericia coli ESS = assay: MIC determination in broth microdilution assay
[10] = test system: Enterococcus faecium #17501 (vancomycin-resistant clinical isolate); assay: MIC determination in broth microdilution assay
[11] = test system: Staphylococcus aureus ATCC29213; assay: MIC determination in broth microdilution assay
[12] = test system: Eschericia coli ATCC25922; assay: MIC determination in broth microdilution assay
[13] = test system: panel of anaerobic bacteria (Bacteroides fragilis, Clostridium perfringens, Clostridium difficele); assay type: cell-based; details: single concentration 100 μM
Pharmacokinetic studies = assay type: in vivo, mice
Description: Samples of serum were taken at defined timepoints.
The supernatant was used for the analysis.

Question: Which IC50 ([1]; Plasmodium falciparum, 3D7) does the source give for `COc1ccc(C(=O)/C=C/c2ccccc2)cc1` [4′MC, 4′methoxy chalcone, reference compound] here?
Answer: 40000 nM

Question: What about the “Inhibition of DHODH” value [2] of the same compound?
Answer: 7%

Question: What about the IC50 (L. major promastigotes; Leishmania major) of the same compound?
Answer: 5600 nM

Question: And the antibacterial effect [3]?
Answer: no antibacterial effect at all

Question: What about the solubility at 24 h ([4]; 0.3 M phosphate buffer, pH 7.4, aqueous buffer, thermodynamic from solid) of the same compound?
Answer: < 50 µg/mL

Question: Which results are given for `CCCCN(CCCC)c1ccc(/C=C/C(=O)c2cccc(CN(C)C)c2)cc1` [A019, (E)-3-(4-Dibutylamino-phenyl)-1-(3-dimethylaminomethyl-phenyl)-propenone]?
Answer: MIC, B: Staphylococcus aureus ATCC33591 [5]: 9.4 µM (≈ 3.69 µg/mL); Metabolic turn-over (rat) in vitro [6]: 5%; MIC, D: Enterococcus faecalis ATCC29212 [7]: 9.4 µM (≈ 3.69 µg/mL); MIC, F: Streptococcus pneumoniae #998 [8]: 18.8 µM (≈ 7.38 µg/mL); bactericidal or bacteriostatic action (time-kill curve) (S. aureus ATCC29213): bactericidal; MIC (S. aureus ATCC29213): 9.4 µM (≈ 3.69 µg/mL); dependence of the bactericidal action (S. aureus ATCC29213; time-kill curve): primarily dependent on incubation time; MIC, C: Staphylococcus intermedius #2357 [9]: 9.4 µM (≈ 3.69 µg/mL); potency against Gram-positive pathogens in comparison with Licochalcone A ([3]; Gram-positive pathogens): increased potency; MIC, H: Eschericia coli ESS (Eschericia coli ESS): 18.8 µM (≈ 7.38 µg/mL); activity against the ESS strain of E. coli (Eschericia coli ESS): considerable activity; MIC, E: Enterococcus faecium #17501 [10]: 9.4 µM (≈ 3.69 µg/mL); MIC, A: Staphylococcus aureus ATCC29213 [11]: 9.4 µM (≈ 3.69 µg/mL)

Question: Which “MIC, B: Staphylococcus aureus ATCC33591” value [5] does the source give for `CN(C)CCCNCc1cccc(C(=O)/C=C/c2ccc(Cl)cc2Cl)c1` [A022, (E)-3-(2,4-Dichloro-phenyl)-1-{3-[(3-dimethylamino-propylamino)-methyl]-phenyl}-propenone] here?
Answer: 37.5 µM (≈ 14.7 µg/mL)

Question: What about the “MIC, D: Enterococcus faecalis ATCC29212” value [7] of the same compound?
Answer: 18.8 µM (≈ 7.36 µg/mL)

Question: What about the “Inhibition of DHODH” value [2] of the same compound?
Answer: 28%

Question: And the “MIC, F: Streptococcus pneumoniae #998” value [8]?
Answer: 18.8 µM (≈ 7.36 µg/mL)

Question: And the “MIC, G: Eschericia coli ATCC25922” value [12]?
Answer: 18.8 µM (≈ 7.36 µg/mL)

Question: And the “MIC, C: Staphylococcus intermedius #2357” value [9]?
Answer: 37.5 µM (≈ 14.7 µg/mL)

Question: And the “MIC, H: Eschericia coli ESS” value (Eschericia coli ESS)?
Answer: 18.8 µM (≈ 7.36 µg/mL)

Question: What about the “MIC, E: Enterococcus faecium #17501” value [10] of the same compound?
Answer: 18.8 µM (≈ 7.36 µg/mL)

Question: What about the “MIC, A: Staphylococcus aureus ATCC29213” value [11] of the same compound?
Answer: 37.5 µM (≈ 14.7 µg/mL)

Question: With `CN1CCN(Cc2ccccc2C(=O)/C=C/c2ccc(Cl)cc2Cl)CC1` [A026, (E)-3-(2,4-Dichloro-phenyl)-1-[2-(4-methyl-piperazin-1-ylmethyl)-phenyl]-propenone] as the compound, how does the “activity against anaerobic bacteria” value [13] read?
Answer: activity against all microorganisms within the test panel

Question: With `CCCCN(CCCC)c1ccc(/C=C/C(=O)c2ccccc2CN2CCN(C)CC2)cc1` [A031, (E)-3-(4-Dibutylamino-phenyl)-1-[2-(4-methyl-piperazin-1-ylmethyl)-phenyl]-propenone] as the compound, how does the “bactericidal or bacteriostatic action (time-kill curve)” value (S. aureus ATCC29213) read?
Answer: bactericidal

Question: And the “MIC” value (S. aureus ATCC29213)?
Answer: 9.4 µM (≈ 4.21 µg/mL)

Question: And the “activity against the ESS strain of E. coli” value (Eschericia coli ESS)?
Answer: considerable activity

Question: Which results are given for `C=CC(C)(C)c1ccc(OC)c(/C=C/C(=O)c2ccccc2CN(C)C)c1` [A034, (E)-3-[5-(1,1-Dimethyl-allyl)-2-methoxy-phenyl]-1-(2-dimethylaminomethyl-phenyl)-propenone]?
Answer: activity against anaerobic bacteria [13]: activity against all microorganisms within the test panel; IC50 (L. major promastigotes): 900 nM

Question: Which IC50 [1] does the source give for `CN(Cc1ccccc1C(=O)/C=C/c1ccc(Cl)cc1Cl)C(C)(C)C` [A035, (E)-1-{2-[(tert-Butyl-methyl-amino)-methyl]-phenyl}-3-(2,4-dichloro-phenyl)-propenone] here?
Answer: 900 nM

Question: What about the “Inhibition of DHODH” value [2] of the same compound?
Answer: 26%

Question: For `O=C(/C=C/c1ccc(Cl)cc1Cl)c1ccccc1CN1CCOCC1` [A037, (E)-3-(2,4-Dichloro-phenyl)-1-(2-morpholin-4-ylmethyl-phenyl)-propenone], which “activity against anaerobic bacteria” value [13] is on record?
Answer: activity against all microorganisms within the test panel

Question: Which “Inhibition of DHODH” value [2] does the source give for `CN(C)CCN(C)Cc1ccccc1C(=O)/C=C/c1ccc(Cl)cc1Cl` [A038, (E)-3-(2,4-Dichloro-phenyl)-1-(2-{[(2-dimethylamino-ethyl)-methyl-amino]-methyl}-phenyl)-propenone] here?
Answer: 22%

Question: And the “activity against anaerobic bacteria” value [13]?
Answer: activity against all microorganisms within the test panel

Question: And the IC50 (L. major promastigotes)?
Answer: 800 nM

Question: Which bioavailability (Pharmacokinetic studies; mice) does the source give for `O=C(/C=C/c1ccc(Cl)cc1Cl)c1ccccc1CN1CCNCC1` [A048, (E)-3-(2,4-Dichloro-phenyl)-1-(2-piperazin-1-ylmethyl-phenyl)-propenone] here?
Answer: 34%

Question: Which “activity against anaerobic bacteria” value [13] does the source give for `CCN(CC)Cc1cccc(C(=O)/C=C/c2ccc(Cl)cc2Cl)c1` [A063, (E)-3-(2,4-Dichloro-phenyl)-1-(3-diethylaminomethyl-phenyl)-propenone] here?
Answer: activity against all microorganisms within the test panel

Question: What about the IC50 (L. major promastigotes) of the same compound?
Answer: 900 nM

Question: Which IC50 [1] does the source give for `CN(C)Cc1cccc(/C=C/C(=O)c2ccccc2CN(C)C)c1` [A066, (E)-3-(3-Dimethylaminomethyl-phenyl)-1-(2-dimethylaminomethyl-phenyl)-propenone] here?
Answer: 900 nM

Question: What about the “Solubility in aqueous buffer at pH 7.4” value ([4]; 0.3 M phosphate buffer, 24 hours) of the same compound?
Answer: 7.4 mg/ml

Question: For `CN(C)Cc1ccccc1C(=O)/C=C/c1cccc(Nc2cccnc2)c1` [A090, (E)-1-(2-Dimethylaminomethyl-phenyl)-3-[3-(pyridin-3-ylamino)-phenyl]-propenone], which “activity against anaerobic bacteria” value [13] is on record?
Answer: activity against all microorganisms within the test panel

Question: For `COc1ccc(-c2ccccc2)cc1/C=C/C(=O)c1cccc(CN(C)C)c1` [A100, (E)-1-(3-Dimethylaminomethyl-phenyl)-3-(4-methoxy-biphenyl-3-yl)-propenone], which IC50 (L. major promastigotes) is on record?
Answer: 200 nM

Question: Which results are given for `COc1ccc(-c2ccccc2)cc1/C=C/C(=O)c1ccc(CCN(C)C)cc1` [A117, (E)-1-[4-(2-Dimethylamino-ethyl)-phenyl]-3-(4-methoxy-biphenyl-3-yl)-propenone]?
Answer: MIC, B: Staphylococcus aureus ATCC33591 [5]: 9.4 µM (≈ 3.62 µg/mL); MIC, D: Enterococcus faecalis ATCC29212 [7]: 37.5 µM (≈ 14.5 µg/mL); MIC, F: Streptococcus pneumoniae #998 [8]: 37.5 µM (≈ 14.5 µg/mL); MIC, G: Eschericia coli ATCC25922 [12]: 150 µM (≈ 57.8 µg/mL); MIC, C: Staphylococcus intermedius #2357 [9]: 9.4 µM (≈ 3.62 µg/mL); MIC, H: Eschericia coli ESS (Eschericia coli ESS): 9.4 µM (≈ 3.62 µg/mL); MIC, E: Enterococcus faecium #17501 [10]: 37.5 µM (≈ 14.5 µg/mL); MIC, A: Staphylococcus aureus ATCC29213 [11]: 9.4 µM (≈ 3.62 µg/mL)

Question: What does the source list for `C=CC(C)(C)c1cc(/C=C/C(=O)c2ccc(O)cc2)c(OC)cc1O` [LicA, Licochalcone A, reference compound]?
Answer: MIC, B: Staphylococcus aureus ATCC33591 [5]: 37.5 µM (≈ 12.7 µg/mL); metabolic turn-over in vitro [6]: 100%; Metabolic turn-over (rat) in vitro [6]: 100%; IC50 [1]: 6400 nM; MIC, D: Enterococcus faecalis ATCC29212 [7]: 37.5 µM (≈ 12.7 µg/mL); Inhibition of DHODH [2]: 25%; MIC, F: Streptococcus pneumoniae #998 [8]: 75.0 µM (≈ 25.4 µg/mL); IC50 (L. major promastigotes): 4600 nM; MIC, C: Staphylococcus intermedius #2357 [9]: 37.5 µM (≈ 12.7 µg/mL); activity against Gram-negative bacterium Eschericia coli [3]: only modest or no activity; activity against common pathogenic Gram-positive non-fastidious bacteria ([3]; also against antibiotic resistant bacteria): moderate bactericidal activity; t½ in vivo (Pharmacokinetic studies; in vivo, species not given): 10 min; MIC, H: Eschericia coli ESS (Eschericia coli ESS): 300.0 µM (≈ 102 µg/mL); MIC, E: Enterococcus faecium #17501 [10]: 37.5 µM (≈ 12.7 µg/mL); MIC, A: Staphylococcus aureus ATCC29213 [11]: 37.5 µM (≈ 12.7 µg/mL); aqueous solubility ([4]; pH 7.4): approximately 0.01 mg/ml
